Tests used:
[1] = target: T1, Human PDGFRβ, cytoplasmic domain (GST-PDGFRβ) (Homo sapiens, UniProt P09619); test: Human PDGFRβ biochemical inhibition assay (off-chip Mobility Shift Assay)
T1 construct: made in house
In short: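 GST-tagged cytoplasmic domain (aa 557-1106) from baculovirus was incubated 1 h at room temperature with compound, CSKtide, ATP at Km and Mg²⁺ in HEPES buffer, pH 7.5. Phosphorylated and unphosphorylated peptide were separated by off-chip mobility shift, and the product ratio P/(P+S) gave percent inhibition.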

[2] = target: T2, Human PDGFRα, cytoplasmic domain (GST-PDGFRα) (Homo sapiens, UniProt P16234); test: Human PDGFRα biochemical inhibition assay (off-chip Mobility Shift Assay)
T2 construct: made in house
T2 sequence (P16234 550-1089 T674I): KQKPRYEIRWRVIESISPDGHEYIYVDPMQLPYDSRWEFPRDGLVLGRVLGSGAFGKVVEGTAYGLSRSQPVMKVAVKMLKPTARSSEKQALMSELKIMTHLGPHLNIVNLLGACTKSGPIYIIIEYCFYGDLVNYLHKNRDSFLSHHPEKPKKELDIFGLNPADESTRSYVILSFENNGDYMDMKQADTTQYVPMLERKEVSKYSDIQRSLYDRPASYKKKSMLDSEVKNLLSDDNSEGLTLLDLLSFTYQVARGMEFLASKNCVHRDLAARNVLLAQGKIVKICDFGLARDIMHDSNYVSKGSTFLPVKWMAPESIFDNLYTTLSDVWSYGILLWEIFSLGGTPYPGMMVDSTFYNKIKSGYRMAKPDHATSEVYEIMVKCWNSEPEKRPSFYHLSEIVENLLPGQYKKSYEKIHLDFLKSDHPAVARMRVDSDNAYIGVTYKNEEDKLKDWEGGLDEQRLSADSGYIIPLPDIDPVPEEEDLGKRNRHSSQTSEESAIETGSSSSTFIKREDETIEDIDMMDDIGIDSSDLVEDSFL

T1 sequence (P09619 with tags, fused parts or gaps): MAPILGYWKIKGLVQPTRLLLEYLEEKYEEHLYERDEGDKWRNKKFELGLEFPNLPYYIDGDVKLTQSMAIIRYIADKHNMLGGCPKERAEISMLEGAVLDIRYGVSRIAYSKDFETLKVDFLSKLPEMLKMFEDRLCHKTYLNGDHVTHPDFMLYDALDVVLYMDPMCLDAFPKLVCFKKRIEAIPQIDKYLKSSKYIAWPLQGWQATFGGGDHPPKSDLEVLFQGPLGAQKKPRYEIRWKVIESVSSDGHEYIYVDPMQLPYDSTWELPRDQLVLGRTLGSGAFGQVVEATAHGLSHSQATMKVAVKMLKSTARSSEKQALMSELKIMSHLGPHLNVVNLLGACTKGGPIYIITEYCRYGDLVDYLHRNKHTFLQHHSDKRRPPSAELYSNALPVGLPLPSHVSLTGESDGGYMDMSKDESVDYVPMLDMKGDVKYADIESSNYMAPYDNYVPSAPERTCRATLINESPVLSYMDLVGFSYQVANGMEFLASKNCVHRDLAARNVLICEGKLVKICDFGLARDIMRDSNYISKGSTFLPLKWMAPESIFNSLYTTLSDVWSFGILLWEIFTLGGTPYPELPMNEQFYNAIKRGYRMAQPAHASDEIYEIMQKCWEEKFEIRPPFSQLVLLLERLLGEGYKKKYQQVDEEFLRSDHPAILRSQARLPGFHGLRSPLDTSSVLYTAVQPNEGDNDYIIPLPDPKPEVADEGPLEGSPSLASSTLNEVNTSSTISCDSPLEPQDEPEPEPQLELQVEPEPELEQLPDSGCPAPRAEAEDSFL

Compound | IC50 [1] | IC50 [2]
CCn1cc2ncc(N[C@@H](C)c3cccc(NC(=O)c4ccc(CN5CC6(COC6)C5)c(C(F)F)c4)c3)nc2n1 [Compound 506, (S)-4-((2-oxa-6-azaspiro[3.3]heptan-6-yl)methyl)-3-(difluoromethyl)-N-(3-(1-((2-ethyl-2H-pyrazolo[3,4-b]pyrazin-6-yl)amino)ethyl)phenyl)benzamide] | < 300 nM | < 300 nM
C[C@H](Nc1cnc2cnn(C)c2n1)c1cccc(NC(=O)c2ccc(S(C)(=O)=O)cc2)c1 [Compound 220, (S)-N-(3-(1-((1-methyl-1H-pyrazolo[3,4-b]pyrazin-6-yl)amino)ethyl)phenyl)-4-(methylsulfonyl)benzamide] | 300 to 1000 nM | < 300 nM
CCn1cc2ncc(N[C@@H](C)c3cccc(NC(=O)c4ccc(NC5CC5)nc4)c3)nc2n1 [Compound 385, (S)-6-(cyclopropylamino)-N-(3-(1-((2-ethyl-2H-pyrazolo[3,4-b]pyrazin-6-yl)amino)ethyl)phenyl)nicotinamide] | 300 to 1000 nM | < 300 nM
C[C@H](Nc1cnc2cn[nH]c2n1)c1cccc(NC(=O)c2cncc(C3CC3)c2)c1 [Compound 93, (S)-N-(3-(1-((1H-pyrazolo[3,4-b]pyrazin-6-yl)amino)ethyl)phenyl)-5-cyclopropylnicotinamide] | < 300 nM | < 300 nM
CCn1cc2ncc(N[C@@H](C)c3cc(NC(=O)Cc4ccc(C(C)C)cn4)ccc3C)nc2n1 [Compound 710, (S)-N-(3-(1-((2-ethyl-2H-pyrazolo[3,4-b]pyrazin-6-yl)amino)ethyl)-4-methylphenyl)-2-(5-isopropylpyridin-2-yl) acetamide] | ≥ 1000 nM | < 300 nM
C[C@H](Nc1cnc2[nH]cc(-c3cnn(C)c3)c2n1)c1cccc(NC(=O)c2cnn(C3CC3)c2)c1 [Compound 581, (S)-1-cyclopropyl-N-(3-(1-((7-(1-methyl-1H-pyrazol-4-yl)-5H-pyrrolo[2,3-b]pyrazin-2-yl)amino)ethyl)phenyl)-1H-pyrazole-4-carboxamide] | < 300 nM | < 300 nM
CCn1cc2ncc(N[C@@H](C)c3cccc(NC(=O)c4cnc(-n5ccnc5)c(C)c4)c3)nc2n1 [Compound 334, (S)-N-(3-(1-((2-ethyl-2H-pyrazolo[3,4-b]pyrazin-6-yl)amino)ethyl)phenyl)-6-(1H-imidazol-1-yl)-5-methylnicotinamide] | < 300 nM | < 300 nM
Cc1cncc(C(=O)Nc2cccc([C@H](C)Nc3cnc4[nH]c(=O)n(C)c4n3)c2)c1 [Compound 12, (S)-5-methyl-N-(3-(1-((3-methyl-2-oxo-2,3-dihydro-1H-imidazo[4,5-b]pyrazin-5-yl)amino)ethyl)phenyl)nicotinamide] | < 300 nM | < 300 nM
C[C@H](Nc1cnc2cnn(C)c2n1)c1cccc(NC(=O)c2ccc3ccn(C)c3c2)c1 [Compound 50, (S)-1-methyl-N-(3-(1-((1-methyl-1H-pyrazolo[3,4-b]pyrazin-6-yl)amino)ethyl)phenyl)-1H-indole-6-carboxamide] | < 300 nM | < 300 nM
CCn1cc2ncc(N[C@@H](C)c3cccc(NC(=O)c4ccc(OC(F)(F)F)nc4)c3)nc2n1 [Compound 282, (S)-N-(3-(1-((2-ethyl-2H-pyrazolo[3,4-b]pyrazin-6-yl)amino)ethyl)phenyl)-6-(trifluoromethoxy)nicotinamide] | 300 to 1000 nM | < 300 nM
COc1ncc(C(=O)Nc2cccc([C@H](C)Nc3cnc4cnn(C)c4n3)c2)cc1Cl [Compound 187, (S)-5-chloro-6-methoxy-N-(3-(1-((1-methyl-1H-pyrazolo[3,4-b]pyrazin-6-yl)amino)ethyl)phenyl)nicotinamide] | < 300 nM | < 300 nM
C[C@H](Nc1cnc2cnn(C)c2n1)c1cccc(NC(=O)c2cc(C(C)(C)C)nn2C)c1 [Compound 159, (S)-3-(tert-butyl)-1-methyl-N-(3-(1-((1-methyl-1H-pyrazolo[3,4-b]pyrazin-6-yl)amino)ethyl)phenyl)-1H-pyrazole-5-carboxamide] | < 300 nM | < 300 nM
CCn1cc2ncc(N[C@@H](C)c3cc(NC(=O)Cc4ccc(F)cc4)ccc3C)nc2n1 [Compound 701, (S)-N-(3-(1-((2-ethyl-2H-pyrazolo[3,4-b]pyrazin-6-yl)amino)ethyl)-4-methylphenyl)-2-(4-fluorophenyl)acetamide] | < 300 nM | < 300 nM
CCn1cc2ncc(N[C@@H](C)c3cccc(NC(=O)Cc4cccc(C)c4)c3)nc2n1 [Compound 622, (S)-N-(3-(1-((2-ethyl-2H-pyrazolo[3,4-b]pyrazin-6-yl)amino)ethyl)phenyl)-2-(m-tolyl) acetamide] | < 300 nM | < 300 nM
COc1ccc2nc(N[C@@H](C)c3cccc(NC(=O)c4cncc(C)c4)c3)cnc2c1 [Compound 33, (S)-N-(3-(1-((6-methoxyquinoxalin-2-yl)amino)ethyl)phenyl)-5-methylnicotinamide] | < 300 nM | < 300 nM
CCn1cc2ncc(N[C@@H](C)c3cccc(NC(=O)c4ccoc4)c3)nc2n1 [Compound 368, (S)-N-(3-(1-((2-ethyl-2H-pyrazolo[3,4-b]pyrazin-6-yl)amino)ethyl)phenyl)furan-3-carboxamide] | ≥ 1000 nM | ≥ 1000 nM
CCn1cc2ncc(N[C@@H](C)c3cc(NC(=O)c4ccc(CN5CCOCC5)c(C)c4)ccc3C)nc2n1 [Compound 523, (S)-N-(3-(1-((2-ethyl-2H-pyrazolo[3,4-b]pyrazin-6-yl)amino)ethyl)-4-methylphenyl)-3-methyl-4-(morpholinomethyl) benzamide] | < 300 nM | < 300 nM
CCn1cc2ncc(N[C@@H](C)c3cc(NC(=O)c4cnc(NC)c(C)c4)ccc3F)nc2n1 [Compound 379, (S)-N-(3-(1-((2-ethyl-2H-pyrazolo[3,4-b]pyrazin-6-yl)amino)ethyl)-4-fluorophenyl)-5-methyl-6-(methylamino) nicotinamide] | 300 to 1000 nM | < 300 nM
CCn1cc2ncc(N[C@@H](C)c3cc(NC(=O)Cc4cncc(C(F)(F)F)c4)ccc3C)nc2n1 [Compound 692, (S)-N-(3-(1-((2-ethyl-2H-pyrazolo[3,4-b]pyrazin-6-yl)amino)ethyl)-4-methylphenyl)-2-(5-(trifluoromethyl)pyridin-3-yl)acetamide] | < 300 nM | < 300 nM
COc1cncc(C(=O)Nc2cccc([C@H](C)Nc3cnc4[nH]cc(C)c4n3)c2)c1 [Compound 555, (S)-5-methoxy-N-(3-(1-((7-methyl-5H-pyrrolo[2,3-b]pyrazin-2-yl)amino)ethyl)phenyl)nicotinamide] | < 300 nM | < 300 nM
CCn1cc2ncc(N[C@@H](C)c3cc(NC(=O)c4ccc(N5CCN(C)CC5)c(C)c4)ccc3F)nc2n1 [Compound 412, (S)-N-(3-(1-((2-ethyl-2H-pyrazolo[3,4-b]pyrazin-6-yl)amino)ethyl)-4-fluorophenyl)-3-methyl-4-(4-methylpiperazin-1-yl)benzamide] | < 300 nM | < 300 nM
CCn1cc2ncc(N[C@@H](C)c3cccc(NC(=O)c4cncc(OC)c4)c3)nc2n1 [Compound 279, (S)-N-(3-(1-((2-ethyl-2H-pyrazolo[3,4-b]pyrazin-6-yl)amino)ethyl)phenyl)-5-methoxynicotinamide] | 300 to 1000 nM | < 300 nM
CCn1cc2ncc(N[C@@H](C)c3cccc(NC(=O)Cc4ccc(C5CCC5)cn4)c3)nc2n1 [Compound 711, (S)-2-(5-cyclobutylpyridin-2-yl)-N-(3-(1-((2-ethyl-2H-pyrazolo[3,4-b]pyrazin-6-yl)amino)ethyl)phenyl)acetamide] | ≥ 1000 nM | < 300 nM
CCn1cc2ncc(N[C@@H](C)c3cc(NC(=O)c4ccc(C(F)(F)F)nc4)ccc3Cl)nc2n1 [Compound 458, (S)-N-(4-chloro-3-(1-((2-ethyl-2H-pyrazolo[3,4-b]pyrazin-6-yl)amino)ethyl)phenyl)-6-(trifluoromethyl)nicotinamide] | < 300 nM | < 300 nM
Cc1cncc(C(=O)Nc2cccc([C@H](C)Nc3cnc4[nH]nc(Br)c4n3)c2)c1 [Compound 549, (S)-N-(3-(1-((3-bromo-1H-pyrazolo[3,4-b]pyrazin-5-yl)amino)ethyl)phenyl)-5-methylnicotinamide] | < 300 nM | < 300 nM
CCn1cc2ncc(N[C@@H](C)c3cc(NC(=O)c4ccc(CN5CCN(C)CC5)c(C)c4)ccc3F)nc2n1 [Compound 457, (S)-N-(3-(1-((2-ethyl-2H-pvrazolo[3,4-b]pyrazin-6-yl)amino)ethyl)-4-fluorophenyl)-3 methyl-4-((4-methylpiperazin-1-yl)methyl)benzamide] | < 300 nM | < 300 nM
Cc1cncc(C(=O)Nc2cccc([C@H](C)Nc3cnc4[nH]cc(-c5cncnc5)c4n3)c2)c1 [Compound 593, (S)-5-methyl-N-(3-(1-((7-(pyrimidin-5-yl)-5H-pyrrolo [2,3-b]pyrazin-2-yl)amino)ethyl)phenyl)nicotinamide] | < 300 nM | < 300 nM
CCn1cc2ncc(N[C@@H](C)c3cccc(NC(=O)c4cnc(NC5CC5)c(C)c4)c3)nc2n1 [Compound 352, (S)-6-(cyclopropylamino)-N-(3-(1-((2-ethyl-2H-pyrazolo[3,4-b]pyrazin-6-yl)amino)ethyl)phenyl)-5-methylnicotinamide] | 300 to 1000 nM | < 300 nM
Cc1cncc(C(=O)Nc2cccc([C@H](C)Nc3cnc4[nH]cnc4n3)c2)c1 [Compound 23, (S)—N-(3-(1-((1H-imidazo[4,5-b]pyrazin-5-yl)amino)ethyl)phenyl)-5-methylnicotinamide] | 300 to 1000 nM | 300 to 1000 nM
CCn1cc2ncc(N[C@@H](C)c3cccc(NC(=O)c4ccc(Cl)c(F)c4)c3)nc2n1 [Compound 347, (S)-4-chloro-N-(3-(1-((2-ethyl-2H-pyrazolo[3,4-b]pyrazin-6-yl)amino)ethyl)phenyl)-3-fluorobenzamide] | < 300 nM | < 300 nM

Source: patent publication US20230102554A1 (GB002, INC., priority 2019, published 2023)
